US20240181081A1, “Compositions and Methods for Treatment of Myotonic Dystrophy Type 1 with CRISPR/SACAS9” (Vertex Pharmaceuticals Incorporated, priority 2021, published 2024)

Tests used:
[1] = test system: CTG repeat expansion in the 3′ UTR of human DMPK gene; experiment: DOUBLE-cut screening: CTG repeat excision by loss-of-signal ddPCR in primary DM1 patient myoblasts; assay type: cell-based; details: sgRNA pair RNP, mean of upstream and downstream ddPCR assays; for % of CTG repeat excision efficiency by ddPCR (DNA-PKi): 3 μM Compound 6 for 48 hrs; for % of CTG repeat excision efficiency by ddPCR (Vehicle): DMSO 48 hrs
Method: (§1) RNPs were assembled with recombinant SaCas9 protein (Aldevron) and chemically modified sgRNAs (Synthego) at a ratio of 1:3 (protein:sgRNA). For SINGLE-cut screening, RNP complexes were assembled with 30 pmol of SaCas9 and 90 pmol of sgRNA in P5 Primary Cell Nucleofector Solution (Lonza). After incubation at room temperature for 20 minutes, 10 μL of RNP complex was mixed with two hundred thousand primary myoblasts resuspended in 10 μL of P5 Nucleofector Solution. For DOUBLE-cut screening, RNP complexes were first assembled for individual sgRNAs with 20 pmol of SaCas9 protein and 60 pmol of sgRNAs in 5 μL of P5 Nucleofector Solution. After incubation at room temperature for 20 minutes, the two RNP complexes (one for upstream sgRNA and one for downstream sgRNA) were mixed at 1:1 ratio and then further mixed with two hundred thousand primary myoblasts resuspended in 10 μL of P5 Nucleofector Solution.
(§2) The Nucleofector 96-well Shuttle System (Lonza) was used to deliver the SaCa9/sgRNA RNPs into primary DM1 patient myoblasts using the nucleofection program CM138. Following nucleofection, myoblasts from each well of nucleofection shuttle were split into six wells of the 96-well cell culture plate (Greiner, 655090) coated with matrigel. The first three wells were treated with DMSO for 48 hrs before changing to fresh myoblast growth medium, and the other three wells were treated with 3 μM of DNA-PKi Compound 6 for 48 hrs before changing to fresh myoblast growth medium. 72 hrs post nucleofection, two wells of DMSO-treated myoblasts and two wells of DNA-PKi-treated myoblasts from each nucleofection were harvested for genomic DNA extraction using the Kingfisher Flex purification system (Thermal Fisher), whereas one well of DMSO-treated myoblasts and one well of DNA-PKi-treated myoblasts were stained for RNA foci by FISH staining.
The primers and probes of ddPCR were designed using the online primer design software Primer3Plus (http://www.bioinformatics.nl/cgi-bin/primer3plus/primer3plus.cgi). The two Target primers/probe sets were used to detect CTG repeat excision, and the Reference primers/probe set was used to amplify a region located in Exon 1 of human DMPK gene and it served as a reference control for the Target sets. The 24 μL of ddPCR reaction consisted of 12 μL of Supermix for Probes (no dUTP) (Bio-Rad Laboratories), 1 μL of Reference primers mix (21.6 μM), 1 μL of Reference probe (6 μM), 1 μL of Target primers mix (21.6 μM), 1 μL of Target probe (6 μM), and 8 μL of sample genomic DNA. Droplets were generated using probe oil with the QX200 Droplet Generator (Bio-Rad Laboratories). Droplets were transferred to a 96-well PCR plate, sealed and cycled in a C1000 deep well Thermocycler (Bio-Rad Laboratories) under the following cycling protocol: 1 cycle at 95° C. for 10 min; 40 cycles of 94° C. for 30 sec, and 58° C. for 1 min; 1 cycle at 98° C. for 10 min (for enzyme inactivation). The cycled plate was then transferred and read in the FAM and HEX channels using the Bio-Rad QX200 Droplet Reader (Bio-Rad Laboratories). ddPCR analysis was performed with the Bio-Rad QuantaSoft Pro Software.
Next, DOUBLE-cut screening was performed to assess the efficiency of paired sgRNAs-induced CTG repeat excision and RNA foci reduction. 90 SaCas9 sgRNA pairs formed by one upstream sgRNA and one downstream sgRNA were assembled with recombinant SaCas9 protein into RNP complex and nucleofected into primary DM1 patient myoblasts. Nucleofected myoblasts were treated with either DMSO (vehicle) or 3 μM of Compound 6 (DNA-PKi) for 48 hrs. 72 hrs post nucleofection, myoblasts were subjected to either genomic DNA isolation or RNA foci staining.
One upstream and one downstream loss-of-signal droplet digital PCR (ddPCR) assays were used to determine the efficiency of CTG repeat excision. ddPCR signals would be abolished upon excision of the CTG repeat expansion in these loss-of-signal ddPCR assays. […]

[2] = test system: CUG RNA foci in primary DM1 patient myoblasts; experiment: DOUBLE-cut screening: FISH staining of RNA foci in primary DM1 patient myoblasts; assay type: cell-based, human; details: sgRNA pair RNP, 72 hrs post nucleofection; for % of CUG foci free nuclei (DNA-PKi): 3 μM Compound 6 for 48 hrs; for % of CUG foci free nuclei (Vehicle): DMSO 48 hrs
Method: as §1, §2
Primary myoblasts were fixed for 15 min with 4% paraformaldehyde (PFA) and washed five times with 1×PBS for 10 min each at room temperature. Before staining, cells were permeabilized with 0.5% triton X-100 in 1×PBS for 5 min at room temperature, and then washed with 30% formamide and 2× saline-sodium citrate (SSC) mixture for 10 min at room temperature. Cells were then stained with 1 ng/μL of Cy3-PNA(CAG) 5 probe (PNA Bio, F5001) diluted in 30% formamide, 2×SSC, 2 μg/mL BSA, 66 μg/mL yeast tRNA, and 2 mM vanadyl complex for 15 min at 80° C. Following probe staining, cells were then washed in 30% formamide and 2×SSC mixture for 30 min at 42° C., then washed in 30% formamide and 2×SSC mixture for 30 min at 37° C., and then washed in 1×SSC solution for 10 min at room temperature, and finally washed in 1×PBS for 10 min at room temperature. Cells were next stained with anti-MBNL1 antibody (Santa Cruz, 3A4) diluted in 1% bovine serum albumin (BSA) for overnight at 4° C., and washed twice with 1×PBS for 10 min each at room temperature. Cells were then incubated with the secondary antibody goat […] Alexa 647 (Thermo Fisher, A32728) diluted in 1% BSA for 1 hr at room temperature, and washed twice with 1×PBS for 10 min each at room temperature. Next, cells were stained with Hoechst solution (Thermo Fisher, H3569) at 0.1 mg/ml for 5 min, and washed once with 1×PBS for 5 min. PBS was aspirated and fresh 100 μl of fresh PBS was added to each well. High-throughput acquisition of images was completed with the ImageXpress Micro Confocal High-Content Imaging System (Molecular Devices). RNA foci quantifications were accomplished with a customized analysis module of the MetaXpress program (Molecular Devices).
Next, DOUBLE-cut screening was performed to assess the efficiency of paired sgRNAs-induced CTG repeat excision and RNA foci reduction. 90 SaCas9 sgRNA pairs formed by one upstream sgRNA and one downstream sgRNA were assembled with recombinant SaCas9 protein into RNP complex and nucleofected into primary DM1 patient myoblasts. […]

Substance | % of CTG repeat excision efficiency by ddPCR (DNA-PKi) [1] | % of CTG repeat excision efficiency by ddPCR (Vehicle) [1] | % of CUG foci free nuclei (DNA-PKi) [2] | % of CUG foci free nuclei (Vehicle) [2]
SaU1 + SaD2: SaCas9 sgRNA pair, SEQ ID NOs: 1 and 10 (guide 1 GCCCCGGAGTCGAAGACAGTTC; guide 2 TCGGCCAGGCTGAGGCCCTGAC; listed as DNA, chemistry not fully specified) | 54.31% | 47.82% | 84.27% | 76.74%
SaU1 + SaD3: SaCas9 sgRNA pair, SEQ ID NOs: 1 and 11 (guide 1 GCCCCGGAGTCGAAGACAGTTC; guide 2 CAACGATAGGTGGGGGTGCGTG; listed as DNA, chemistry not fully specified) | 52.18% | 33.47% | 81.32% | 47.32%
SaU1 + SaD4: SaCas9 sgRNA pair, SEQ ID NOs: 1 and 12 (guide 1 GCCCCGGAGTCGAAGACAGTTC; guide 2 ACTTTGCGAACCAACGATAGGT; listed as DNA, chemistry not fully specified) | 61.00% | 41.92% | 87.86% | 81.45%
SaU1 + SaD5: SaCas9 sgRNA pair, SEQ ID NOs: 1 and 13 (guide 1 GCCCCGGAGTCGAAGACAGTTC; guide 2 GGGTTTGGCAAAAGCAAATTTC; listed as DNA, chemistry not fully specified) | 53.67% | 30.65% | 82.90% | 70.23%
SaU1 + SaD6: SaCas9 sgRNA pair, SEQ ID NOs: 1 and 14 (guide 1 GCCCCGGAGTCGAAGACAGTTC; guide 2 CTTTTGCCAAACCCGCTTTTTC; listed as DNA, chemistry not fully specified) | 49.69% | 32.51% | 70.98% | 31.66%
SaU1 + SaD7: SaCas9 sgRNA pair, SEQ ID NOs: 1 and 15 (guide 1 GCCCCGGAGTCGAAGACAGTTC; guide 2 GGGGCGCGGGATCCCCGAAAAA; listed as DNA, chemistry not fully specified) | 56.69% | 34.21% | 80.16% | 49.51%
SaU1 + SaD10: SaCas9 sgRNA pair, SEQ ID NOs: 1 and 18 (guide 1 GCCCCGGAGTCGAAGACAGTTC; guide 2 TTGGGGGTCCTGTAGCCTGTCA; listed as DNA, chemistry not fully specified) | 61.44% | 37.72% | 84.12% | 75.91%
SaU1 + SaD11: SaCas9 sgRNA pair, SEQ ID NOs: 1 and 19 (guide 1 GCCCCGGAGTCGAAGACAGTTC; guide 2 CAAAACGTGGATTGGGGTTGTT; listed as DNA, chemistry not fully specified) | 52.38% | 26.52% | 74.03% | 41.32%
SaU1 + SaD12: SaCas9 sgRNA pair, SEQ ID NOs: 1 and 20 (guide 1 GCCCCGGAGTCGAAGACAGTTC; guide 2 TCAGTGCATCCAAAACGTGGAT; listed as DNA, chemistry not fully specified) | 63.43% | 37.77% | 84.94% | 69.78%
SaU1 + SaD13: SaCas9 sgRNA pair, SEQ ID NOs: 1 and 21 (guide 1 GCCCCGGAGTCGAAGACAGTTC; guide 2 CCCAACAACCCCAATCCACGTT; listed as DNA, chemistry not fully specified) | 54.59% | 25.67% | 74.44% | 35.75%
SaU7 + SaD2: SaCas9 sgRNA pair, SEQ ID NOs: 7 and 10 (guide 1 CGCGGCCGGCGAACGGGGCTCG; guide 2 TCGGCCAGGCTGAGGCCCTGAC; listed as DNA, chemistry not fully specified) |  |  | 81.28% | 70.29%
SaU8 + SaD2: SaCas9 sgRNA pair, SEQ ID NOs: 8 and 10 (guide 1 GGCTCGAAGGGTCCTTGTAGCC; guide 2 TCGGCCAGGCTGAGGCCCTGAC; listed as DNA, chemistry not fully specified) |  |  | 82.91% | 76.39%
